Results as given in US8461382B2, “Ionic liquids” (BASF SE, priority 2007, dated 2013).

Assays:
[1] = Miscibility of the ionic liquid with water and organic solvents; assay type: physicochemical
Protocol: (§1) The viscosity at 25° C. at a low shear rate is in the order of one million millipascal seconds.
(§2) Owing to the amphiphilic and thus solubilizing properties, the ionic liquid of example 6 has a wider solvent spectrum than conventional ionic liquids. Furthermore, it can be concluded that the ionic liquid of example 6 has structuring properties in water, organic solvents and in particular also in the pure state. Accordingly, it can serve, for example, as template in the mineralization processes (e.g. for mesoporous silicates). Furthermore, the ionic liquid of example 6 is liquid at room temperature (for melting point, see Table 1).

[2] = Decomposition point (commencement of decomposition) of 2,5,8,11-tetraoxatridecan-13-oates; assay type: physicochemical
Excerpt: (§3) Melting and decomposition points (commencement of decomposition) and viscosities of various 2,5,8,11-tetraoxatridecan-13-oates.

[3] = Solubility experiments: salts and olive oil dissolved in TEGMECH2COONa; assay type: physicochemical
Protocol: Solubility experiments were carried out using the sodium 2,5,8,11-tetraoxatridecan-13-oate synthesized as described in example 1.
The solubility of olive oil in a concentration of up to 10% by weight in TEGMECH2COONa is particularly worthy of mention with regard to the environmental compatibility of the sodium salt.

[4] = Viscosity of the ionic liquids at 25° C.; assay type: physicochemical
Protocol: as §1, §3
^1All liquids examined behaved as Newtonian fluids

[5] = Electrical conductivity, fluorescence and surface tension measurements in aqueous solution; assay type: physicochemical; settings: concluded from conductivity and fluorescence or surface tension measurements in aqueous medium
Excerpt: as §2

COCCOCCOCCOCC(=O)[O-].[Na+] [Example 1, sodium 2,5,8,11-tetraoxatridecan-13-oate]
Miscibility with acetone ([1]; acetone): miscible in any ratio
Miscibility with dichloromethane ([1]; dichloromethane): miscible in any ratio
Miscibility with diethyl ether ([1]; diethyl ether): partially miscible
Miscibility with pentanol ([1]; pentanol): miscible in any ratio
Miscibility with water [1]: miscible in any ratio
Decomposition point [2]: 384 °C
Solubility of magnesium sulfate in the ionic liquid ([3]; 120° C.): appreciably soluble
Solubility of ammonium nitrate in the ionic liquid ([3]; room temperature): readily soluble
Solubility of NaCl in the ionic liquid ([3]; temperatures above 100° C.): dissolves in low concentrations
Viscosity ([4]; at 25° C.): 1.64 · 10^5 mPa · s
Viscosity ([4]; at 25° C. at a low shear rate, order of magnitude): one million

COCCOCCOCCOCC(=O)[O-].[K+] [Example 3, potassium 2,5,8,11-tetraoxatridecan-13-oate]
Decomposition point [2]: 369 °C
melting point: 59.1 °C

COCCOCCOCCOCC(=O)O [Example 5, hexylammonium 2,5,8,11-tetraoxatridecan-13-oate]
Character in aqueous solution [5]: hydrotropic character
Viscosity ([4]; at 25° C.): 2.40 · 10^2 mPa · s
Viscosity ([4]; order of magnitude): ~20 000 mPas

CCCCCCCCN.COCCOCCOCCOCC(=O)O [Example 7]
Decomposition point [2]: 145 °C
Viscosity ([4]; at 25° C.): 3.75 · 10^2 mPa · s

CCCCCCCCCCN.COCCOCCOCCOCC(=O)O [Example 8]
Decomposition point [2]: 156 °C
Viscosity ([4]; at 25° C.): 4.00 · 10^2 mPa · s

calcium di(2,5,8,11-tetraoxatridecan-13-oate) [Example 4]
Decomposition point [2]: 320 °C

dodecylammonium 2,5,8,11-tetraoxatridecan-13-oate [Example 6]
Miscibility with water [1]: mixes with water in any ratio
Character in aqueous solution [5]: surfactant character
Decomposition point [2]: 165 °C
Viscosity ([4]; at 25° C.): 4.67 · 10^2 mPa · s
